Each structure is given as a SMILES string.

Experiment [1] relates to RD. The experiment is described as follows: Inhibitory activity of EMCV IRES co-transfected with EV71 5' UTR in human RD cells at 2 mg/ml after 24 hrs by luciferase reporter gene assay. The following applies: Encephalomyocarditis virus. The experiment is classed as cell-based.
Experiment [2] concerns RD. Kind of experiment: Inhibitory activity of EV71 IRES co-transfected with EMCV IRES in human RD cells at 2 mg/ml after 24 hrs by luciferase reporter gene assay. The following applies: Enterovirus A71. The class given is cell-based. For orientation: Reporter assays use an easily measured gene product as a stand-in for the process of interest.
For experiment [3], the system named is Enterovirus A71. Kind of experiment: Antiviral activity against EV71 infected in human RD cells assessed as viral RNA transcript level at 2 mg/ml treated 24 hrs prior to infection measured after 24 hrs by real time RT-PCR analysis. The experiment is classed as functional. In general terms: In qPCR the cycle at which signal appears reflects the starting amount.

The test system of experiment [4] is Enterovirus A71. Kind of experiment: Antiviral activity against EV71 infected in human RD cells assessed as viral RNA transcript level at 1 mg/ml treated 24 hrs prior to infection measured after 24 hrs by real time RT-PCR analysis. The experiment is classed as functional.
The test system of experiment [5] is Enterovirus A71. Kind of experiment: Antiviral activity against EV71 infected in human RD cells assessed as inhibition of viral infection at 2 mg/ml treated 24 hrs prior to infection measured after 72 hrs by WST-1 assay. The experiment is classed as functional. The following applies: Enterovirus A. (Formazan colour is commonly taken as a measure of viable cells.)

The test system of experiment [6] is Enterovirus A71. The experiment is described as follows: Antiviral activity against EV71 infected in human RD cells assessed as cell survival rate at 1 to 2 mg/ml after 24 hrs by WST-1 assay. The class given is functional.

By inhibition is commonly meant how much of the control response was suppressed. Regarding `COC(=O)C1=CO[C@@H](O[C@@H]2O[C@H](CO)[C@@H](O)[C@H](O)[C@H]2O)[C@@H]2C(CO)=CC[C@H]12` [GENIPOSIDE], the inhibition in the experiment on RD [1] and with RD [2] was 50% each time. Further, the Activity in the experiment on Enterovirus A71 [3] was found to be 20%; in the experiment on Enterovirus A71 [4], 60%. Also, the inhibition at 2000 µg/mL with Enterovirus A71 [5] was determined as 80%. Further, in the experiment on Enterovirus A71 [6], the Survival entry is recorded as “>=80%”.
As to `CC(/C=C/C=C(\C)C(=O)O[C@@H]1O[C@H](CO[C@@H]2O[C@H](CO)[C@@H](O)[C@H](O)[C@H]2O)[C@@H](O)[C@H](O)[C@H]1O)=C\C=C\C=C(C)\C=C\C=C(/C)C(=O)O[C@@H]1O[C@H](CO[C@@H]2O[C@H](CO)[C@@H](O)[C@H](O)[C@H]2O)[C@@H](O)[C@H](O)[C@H]1O` [CROCIN], the Survival result in the experiment on Enterovirus A71 [6] is listed as “>=80%”.
With `O=C(O)C1=CO[C@@H](O[C@@H]2O[C@H](CO)[C@@H](O)[C@H](O)[C@H]2O)[C@@H]2C(CO)=CC[C@H]12` [GENIPOSIDIC ACID], the Survival result with Enterovirus A71 [6] was “>=80%”.
In the case of `COC(=O)C1=CO[C@@H](O)[C@@H]2C(CO)=CC[C@H]12` [GENIPIN], in the experiment with Enterovirus A71 [6], the Survival entry was “>=80%”.

Source of the values: ChEMBL document CHEMBL2331300, “Inhibition of enterovirus 71 infections and viral IRES activity by Fructus gardeniae and geniposide” (2013).
